# Results reported in patent US20030199694A1, “Thermally stable trimetrexates and processes for producing the same” (MedImmune Oncology, Inc., priority 1998, published 2003).
# Tests used:
# [1] = Thermal stability of TMH relative to anhydrous trimetrexate: storage at 25° C. or 50° C., HPLC assay, impurities and moisture; type: physicochemical
# Experimental: Samples of trimetrexate monohydrate and anhydrous trimetrexate were analyzed to compare the thermal stability of anhydrous trimetrexate with the trimetrexate monohydrate of the present invention. Anhydrous trimetrexate was prepared by dehydrating trimetrexate monohydrate. A sample of trimetrexate monohydrate (about 30 g) was placed in a Petri dish and dried in a vacuum dessicator over phosphorus pentoxide. The sample was dried at a pressure of about 100 microns for 6 days. The following procedure was used to assay the purity of trimetrexate monohydrate and anhydrous trimetrexate samples. Samples of the compounds were analyzed by HPLC. The mobile phase is prepared by first dissolving 5 g of sodium dodecyl sulfate (Aldrich 86,201-0 or equivalent) in 1100 mL water and adjusting the pH to 3.0 with glacial acetic acid (about 5 mL). 825 mL of HPLC grade acetonitrile is then added, and the solution mixed thoroughly, while avoiding excessive foaming. The unfiltered solution is then degassed by sonicating for 5 minutes. The solution is degassed immediately before use, and at the beginning of each day. Duplicate standard solutions are prepared with a trimetrexate reference compound at a concentration of 0.2 mg/mL in the mobile phase solution (“STD-1” and “STD-2”). The standard solutions are stored under refrigeration when not in use, and fresh solutions are prepared daily. Sample solutions of anhydrous trimetrexate and trimetrexate monohydrate are also prepared at 0.2 mg/mL in the mobile phase solution. The system is checked before testing the sample solutions by analyzing the reproducibility of trimetrexate peak area measurements for six injections of the standard trimetrexate solution (STD-1), trimetrexate peak symmetry, and agreement between the duplicate standard preparations. The acceptance criteria are as follows: For assay data, the HPLC operating parameters are as follows: [table] For the determination of impurities, the operating parameters are as before, except that the run time is extended to 30 minutes to detect all possible impurities and/or degradation products, and an attenuation of 32 is used. A mobile phase blank is first run, followed by a sample solution. Purity (%w/w)=[(mg found×100%)+mg sample weighed)]×[…] Peak Area (%)=[peak area (imp)÷(Σpeak area (all impurities+TMTX))]×100. Samples of the anhydrous and monohydrate compounds were initially assayed for purity and moisture content. The samples were stored for 4 weeks at either 25° C. or 50° C. HPLC chromatograms were recorded for the samples stored at each temperature after 3 days, 1 week, 2 weeks and 4 weeks of storage, and the samples assayed at each time interval for purity, impurities and water content. […] The peak at about 13 minutes corresponds to the non-degraded compound; this peak is truncated in the Figure in order to expand the y-axis to view the impurities. […] The “amine” entry in Table 9 corresponds to the amine degradation product which is prominent in FIG. 7 as the large peak at about 20 minutes in the anhydrous sample. This degradation product was isolated and identified as 6-aminomethyl-5-methyl-2,4-quinazolinediamine. It is a pale yellow powder, with a molecular formula of C10H13N5 and a formula weight of 203.25 g/mol. The structure of the compound is shown below [drawing 11]
# [2] = cited from earlier work
# [3] = tested on: murine cell lines such as L1210, L5178Y, S-180, W-256; conditions: cited from earlier work
# [4] = tested on: human tumor cells lines derived from breast, colon, lung, ovary, renal and melanoma cells; conditions: human tumor cell lines from breast; cited from earlier work
# [5] = tested on: murine tumors such as B16 melanoma, colon 26 and 38, L1210 and p388 leukemia and CD8F mammary tumors; conditions: cited from earlier work
# Hygroscopicity = type: physicochemical
# [6] = at 37° C.; cited from earlier work
# [7] = stored at 25° C., 1 week, monohydrate
# [8] = stored at 25° C., 2 weeks, monohydrate
# [9] = stored at 25° C., 4 weeks, monohydrate
# [10] = stored at 25° C., 3 days, monohydrate
# [11] = stored at 50° C., 1 week, monohydrate
# [12] = stored at 50° C., 2 weeks, monohydrate
# [13] = stored at 50° C., 4 weeks, monohydrate
# [14] = stored at 50° C., 3 days, monohydrate
smiles,measurement,setting,value
"COc1cc(NCc2ccc3nc(N)nc(N)c3c2C)cc(OC)c1OC [Anhydrous, 2,4-diamino-5-methyl-6-[(3,4,5-trimethoxyanilino)methyl] quinazoline]",% Moisture,[1]; Initial,0.1%
same,Assay,"[1]; Initial, before storage, HPLC purity",98.5 w/w
same,Total Impurities,"[1]; Initial, HPLC",0.3 % area
same,Amine,"[1]; Initial, degradation product 6-aminomethyl-5-methyl-2,4-quinazolinediamine, HPLC",0.2 % area
same,% Moisture,"[1]; stored at 25° C., 1 week",0.4%
same,Amine,"[1]; stored at 25° C., 1 week",0.3 % area
same,Assay,"[1]; stored at 25° C., 1 week",96.6 w/w
same,Total Impurities,"[1]; stored at 25° C., 1 week",0.4 % area
same,% Moisture,"[1]; stored at 25° C., 2 weeks",0.2%
same,Amine,"[1]; stored at 25° C., 2 weeks",0.4 % area
same,Assay,"[1]; stored at 25° C., 2 weeks",98.4 w/w
same,Total Impurities,"[1]; stored at 25° C., 2 weeks",0.5 % area
same,% Moisture,"[1]; stored at 25° C., 4 weeks",<0.1%
same,Amine,"[1]; stored at 25° C., 4 weeks",0.8 % area
same,Assay,"[1]; stored at 25° C., 4 weeks",97.6 w/w
same,Total Impurities,"[1]; stored at 25° C., 4 weeks",1.0 % area
same,% Moisture,"[1]; stored at 25° C., 3 days",0.3%
same,Amine,"[1]; stored at 25° C., 3 days",0.2 % area
same,Assay,"[1]; stored at 25° C., 3 days",100.4 w/w
same,Total Impurities,"[1]; stored at 25° C., 3 days",0.4 % area
same,% Moisture,"[1]; stored at 50° C., 1 week",0.7%
same,Amine,"[1]; stored at 50° C., 1 week",0.7 % area
same,Assay,"[1]; stored at 50° C., 1 week",95.0 w/w
same,Total Impurities,"[1]; stored at 50° C., 1 week",1.2 % area
same,% Moisture,"[1]; stored at 50° C., 2 weeks",0.3%
same,Amine,"[1]; stored at 50° C., 2 weeks",1.4 % area
same,Assay,"[1]; stored at 50° C., 2 weeks",95.8 w/w
same,Total Impurities,"[1]; stored at 50° C., 2 weeks",2.1 % area
same,% Moisture,"[1]; stored at 50° C., 4 weeks",<0.1%
same,Amine,"[1]; stored at 50° C., 4 weeks",2.9 % area
same,Assay,"[1]; stored at 50° C., 4 weeks",92.7 w/w
same,Total Impurities,"[1]; stored at 50° C., 4 weeks",4.5 % area
same,% Moisture,"[1]; stored at 50° C., 3 days",0.4%
same,Amine,"[1]; stored at 50° C., 3 days",0.4 % area
same,Assay,"[1]; stored at 50° C., 3 days",99.5 w/w
same,Total Impurities,"[1]; stored at 50° C., 3 days",0.7 % area
same,water solubility,[2],< 0.1 mg/mL
same,antitumor activity in vitro,[3],antitumor activity
same,antitumor activity in vitro,[4],antitumor activity
same,therapeutic utility in vivo,[5],therapeutic utility
"COc1cc(NCc2ccc3nc(N)nc(N)c3c2C)cc(OC)c1OC [Monohydrate, trimetrexate monohydrate]",Assay,"[1]; Initial, before storage, HPLC purity, monohydrate",99.6 w/w
same,Total Impurities,"[1]; Initial, HPLC, monohydrate",0.2 % area
same,Amine,"[1]; Initial, degradation product 6-aminomethyl-5-methyl-2,4-quinazolinediamine, HPLC, monohydrate",0.1 % area
same,% Moisture,"[1]; Initial, monohydrate",4.9%
same,degradation products in HPLC chromatogram,"[1]; after 4 weeks at 50° C., FIG. 7",no significant degradation products
same,% Moisture,[1]; [7],4.5%
same,Amine,[1]; [7],0.1 % area
same,Assay,[1]; [7],96.3 w/w
same,Total Impurities,[1]; [7],0.1 % area
same,% Moisture,[1]; [8],4.9%
same,Amine,[1]; [8],0.1 % area
same,Assay,[1]; [8],99.4 w/w
same,Total Impurities,[1]; [8],0.1 % area
same,% Moisture,[1]; [9],4.3%
same,Amine,[1]; [9],0.1 % area
same,Assay,[1]; [9],99.6 w/w
same,Total Impurities,[1]; [9],0.3 % area
same,% Moisture,[1]; [10],4.7%
same,Amine,[1]; [10],0.1 % area
same,Assay,[1]; [10],101.4 w/w
same,Total Impurities,[1]; [10],0.2 % area
same,% Moisture,[1]; [11],4.6%
same,Amine,[1]; [11],0.1 % area
same,Assay,[1]; [11],98.6 w/w
same,Total Impurities,[1]; [11],0.2 % area
same,% Moisture,[1]; [12],4.8%
same,Amine,[1]; [12],0.1 % area
same,Assay,[1]; [12],98.7 w/w
same,Total Impurities,[1]; [12],0.1 % area
same,% Moisture,[1]; [13],4.4%
same,Amine,[1]; [13],0.2 % area
same,Assay,[1]; [13],99.6 w/w
same,Total Impurities,[1]; [13],0.3 % area
same,% Moisture,[1]; [14],4.7%
same,Amine,[1]; [14],0.1 % area
same,Assay,[1]; [14],99.4 w/w
same,Total Impurities,[1]; [14],0.3 % area
same,hygroscopicity,Hygroscopicity,non-hygroscopic
COc1cc(NCc2ccc3nc(N)nc(N)c3c2C)cc(OC)c1OC.O=C(O)[C@H]1O[C@H](O)[C@H](O)[C@@H](O)[C@@H]1O [trimetrexate glucuronate],water solubility,[2],> 50 mg/mL
same,half-life in solution,[6],51.6 ± 0.8 days
